In patent publication US5098933A, “Pharmaceutically useful Michael addition products of unsaturated aldehydes and ketones and ascorbic acid” (Theracel Corporation, priority 1990, dated 1992):

Tested on: plaque forming cells, antibody specific to sheep red blood cells
Assay: Jerne Hemolytic Plaque Assay
Type: in vivo, mice
Experimental: This assay measures the IgM or IgG isotypes of specific antibody produced by antigen used to immunize the mice. […] The direct assay detects IgM and the indirect assay detects IgG-specific antibody.
Washed spleen cells are added to an agarose (FMC, Rockland, Me.) preparation containing sheep red blood cells (SRBC) and guinea pig complement. A drop of this mixture is transferred to a small petri dish; a cover slip is then placed over the drop to flatten it. The agarose prep is allowed to solidify. Then, the dishes are placed in a small humidified changer inside a CO-2 incubator overnight.
Small pinpoint cleared areas (plaques) will be observed under the cover slip. The cleared areas are caused by antibody, specific to the SRBC's being released by stimulated spleen cells and in conjunction with the complement, lyse surrounding SRBC's. These plaque forming cells (PFC's) are counted, and calculations are performed to obtain PFC's per […] spleen cells.
1. Spleens are harvested from mice according to a standard procedure and adjusted to a final concentration of 20% in […].
14. Count and record the number of hemolytic plaques per plate. Average plaque counts between the duplicate sets. Multiply the average number of plaques per group by 2.5 to obtain the number of plaque forming cells per million spleen cells.

O=C1CCC(C2(O)C(=O)OC3C(O)COC32O)C1 (single isomer, unassigned) [L-KCPBL-A]
% INCREASE (25 mg/kg (Table 12)): 233%
PFC (25 mg/kg (Table 12)): 162.5 PFC/1 MILLION CELLS
% INCREASE (50 mg/kg (Table 12)): 151%
PFC (50 mg/kg (Table 12)): 122.5 PFC/1 MILLION CELLS
% INCREASE (100 mg/kg (Table 12)): 120%
PFC (100 mg/kg (Table 12)): 107.5 PFC/1 MILLION CELLS
% INCREASE (200 mg/kg (Table 12)): 202%
PFC (200 mg/kg (Table 12)): 147.5 PFC/1 MILLION CELLS
antibody production / PFC, dose dependence (vs control): stimulates T-dependent antibody production, but not in a dose response fashion
